According to patent publication US9265781B2, “Process for producing a particulate composition comprising anhydrous crystalline 2-O-alpha-D-glucosyl-L-ascorbic acid” (HAYASHIBARA CO., LTD., priority 2009, dated 2016):

Assay: Accelerated heat-treatment test for browning (Experiment 4)
Format: physicochemical
Conditions: 150 mg heated at 80° C. for three days, dissolved in 3 ml water, absorbance at 400 nm
Text: Accordingly, in this experiment, Test samples 1 and 12 to 16, which had been used in the antecedent Experiments, were examined for the relationship between the coloration and the total content of L-ascorbic acid plus D-glucose, the content of L-ascorbic acid, or the reducing power of the whole particulate composition by conducting an accelerated test on heat treatment according to the following procedures:
One hundred and fifty milligrams of each of the test samples was weighed and placed in a 10-ml test tube with a screw cap, and the test tubes in a closed condition of their opening parts with the screw caps were placed in “DRYING-OVEN SA310”, a product name of an oven commercialized by Masuda Corp., Osaka, Japan, and heated at 80° C. for three days. […] The resulting solutions were measured for absorbance at a wavelength of 400 nm using “UV-2400PC”, a product name of a spectrophotometer commercialized by Shimadzu Corp., Kyoto, Japan. The degree of coloration caused by heating was judged based on the following two criteria: When the absorbance at a wavelength of 400 nm is less than 0.50, it is judged as “Not browned or substantially not browned” (−); and when the absorbance at a wavelength of 400 nm is 0.50 or higher, it is judged as “Browned” (+).

Compound: O=C1O[C@H]([C@@H](O)CO)C(O)=C1O[C@H]1O[C@H](CO)[C@@H](O)[C@H](O)[C@H]1O [Test sample 16, 2-O-α-D-glucosyl-L-ascorbic acid]
- Browning property: + (when the absorbance at a wavelength of 400 nm is 0.50 or higher, it is judged as “Browned” (+))
